# According to patent US20240315947A1, “COSMETIC COMPOSITION COMPRISING MOLECULAR AGGREGATES OF BILE ACIDS OR BILE ACID SALTS” (SCAI THERAPEUTICS CO., LTD., priority 2021, published 2024):
# Read-outs that look alike come from different tables or passages of the source.
# Key:
# 3T3-L1 preadipocytes = assay: Preadipocyte cytotoxicity (cell counting kit-8); details: treated for 4 hours
# Experimental: 3T3-L1 preadipocytes were inoculated into a 96 well plate at 5×10^3 per well, grown in medium (high glucose DMEM, 10% bovine calf serum, 1% penicillin/streptomycin) for 16 hours. The drug was prepared to contain 0.04% and 0.08%, respectively, and then treated for 4 hours. After adding 10 μl of Dojingo CK04-11 cell counting kit-8 to each well according to the manual, reacting for 2 hours, the absorbance at 450 nm was measured with a spectrophotometer to compare preadipocyte cytotoxicity.
# [1] = test system: skin, subcutaneous tissue of the interscapular region; assay: SD rat histological analysis (H&E, Masson's trichome staining); format: in vivo, SD rats; details: subcutaneous injection, 500 μL of 1%
# Text: The interscapular region (back of the neck near the ear) of 10-week-old SD rats (280-350 g) with sufficient subcutaneous adipose tissue was shaved and anesthetized. […].
# Then, tissues (skin, subcutaneous tissue) of the interscapular region were collected, fixed, and subjected to H&E staining and Masson's trichome staining. Tissue changes were investigated through microscopic observation.
# [2] = parameters: species or system SD rats; details: rat, in vivo
# Text: The interscapular region (back of the neck near the ear) of 10-week-old SD rats (280-350 g) with sufficient subcutaneous adipose tissue was shaved and anesthetized.
tissue findings at section creation (Masson's trichome staining) [1],amount of DCA in the subcutaneous tissue [2],amount of DCA in the subcutaneous tissue ([2]; sc),Compound,preadipocyte cytotoxicity (comparison between test materials) (3T3-L1 preadipocytes; 0.04%),survival rate of preadipocytes (3T3-L1 preadipocytes; 0.08%) [%],tissue damage (H&E staining) [1]
–,–,–,Sodium deoxycholate [precursor of deoxycholic acid salt],the same,24.6,–
hematoma and edema,increased over time,gradually decreased,C[C@H](CCC(=O)O)[C@H]1CC[C@H]2[C@@H]3CC[C@@H]4C[C@H](O)CC[C@]4(C)[C@H]3C[C@H](O)[C@]12C [deoxycholic acid],–,–,severe tissue damage
